Laboratory results from PMC5342726, “Identification of small molecule inhibitors of ERCC1-XPF that inhibit DNA repair and potentiate cisplatin efficacy in cancer cells” (Oncotarget, 2016).

Key:
[1] = test system: H460 cells; assay: Cisplatin interstrand crosslink repair by comet assay; assay type: cell-based; conditions: 72 hours, cisplatin at IC90 alone
Protocol: (B) After treatment, comet assay was performed as described at different time intervals (0, 24, 48 and 72 h). The percentage of interstrand crosslinks remaining was calculated using olive tail moment. Results are represented as mean ± SEM of three independent experiments.
The data is expressed as the percentage of crosslinks remaining at the time points assessed.
Cells were treated with compound (Hit control (9:1 DMSO-glycerol). After incubation at 37°C 1 or Hit 2) and cisplatin or just cisplatin alone in serum for 30 minutes, 2 μL of the pre-incubate was diluted into a free media. […] Cells were further treated with 100 μM
Cells were then trypsinized, pelleted and resuspended in 1% low melting point agarose.

[2] = test system: H460 xenografts; conditions: 16168 20 mg/kg i.p. daily or cisplatin 3 mg/kg i.p. twice a week, 10 days
[3] = test system: H460 cells; assay: Cisplatin intrastrand adduct repair by ELISA; assay type: cell-based; conditions: 72 hours (last time point), compound 15 μM 2 h then cisplatin at IC90 2 h; relative to 0 hour
[4] = molecular target: T1, ERCC1-XPF (Homo sapiens, UniProt P07992+Q92889); assay: HTS fluorescence assay of ERCC1-XPF endonuclease activity; assay type: biochemical; conditions: IC50s calculated by CompuSyn, SD from 3 plots, read-out: ERCC1-XPF IC50
T1 construct: made in house; host or cells: Sf9 insect cells, baculovirus (obtained from Aziz Sancar)
T1 sequence (Q92889 1-916): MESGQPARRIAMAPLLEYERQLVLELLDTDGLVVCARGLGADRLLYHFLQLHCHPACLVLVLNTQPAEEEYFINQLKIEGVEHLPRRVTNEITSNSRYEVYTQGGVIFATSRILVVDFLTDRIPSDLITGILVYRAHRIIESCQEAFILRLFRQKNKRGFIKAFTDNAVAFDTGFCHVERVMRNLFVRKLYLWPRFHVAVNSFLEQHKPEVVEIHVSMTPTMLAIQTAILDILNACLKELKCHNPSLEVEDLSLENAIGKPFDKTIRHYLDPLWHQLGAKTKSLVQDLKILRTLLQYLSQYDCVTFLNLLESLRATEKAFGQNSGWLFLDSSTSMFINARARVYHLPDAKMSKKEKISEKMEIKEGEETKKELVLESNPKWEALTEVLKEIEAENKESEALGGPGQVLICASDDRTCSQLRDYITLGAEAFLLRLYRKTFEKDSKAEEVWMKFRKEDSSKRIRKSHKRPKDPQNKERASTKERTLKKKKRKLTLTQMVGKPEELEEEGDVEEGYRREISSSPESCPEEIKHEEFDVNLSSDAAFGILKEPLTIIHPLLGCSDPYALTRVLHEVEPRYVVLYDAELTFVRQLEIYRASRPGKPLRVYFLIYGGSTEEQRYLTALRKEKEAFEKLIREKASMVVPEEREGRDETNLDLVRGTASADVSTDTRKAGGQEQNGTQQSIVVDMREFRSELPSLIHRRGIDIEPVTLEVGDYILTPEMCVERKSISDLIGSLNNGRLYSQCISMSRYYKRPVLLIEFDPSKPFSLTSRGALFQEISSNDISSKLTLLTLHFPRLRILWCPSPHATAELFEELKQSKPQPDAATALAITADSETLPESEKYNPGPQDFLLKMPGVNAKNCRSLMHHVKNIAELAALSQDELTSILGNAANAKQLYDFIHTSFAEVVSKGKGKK
T1 sequence (P07992 1-297): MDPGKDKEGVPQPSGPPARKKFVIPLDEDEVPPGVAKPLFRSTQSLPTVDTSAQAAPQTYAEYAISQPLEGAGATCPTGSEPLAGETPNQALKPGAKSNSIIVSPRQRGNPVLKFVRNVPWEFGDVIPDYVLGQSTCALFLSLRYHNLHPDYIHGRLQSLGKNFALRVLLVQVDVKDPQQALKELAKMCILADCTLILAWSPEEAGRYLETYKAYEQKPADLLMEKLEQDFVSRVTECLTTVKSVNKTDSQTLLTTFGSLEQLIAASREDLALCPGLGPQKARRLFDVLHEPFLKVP
Excerpt: To screen for ERCC1-XPF inhibition, an existing in vitro assay was optimized to a 96-well plate format to allow for screening of compound libraries (NCI-DTP diversity set). These compounds and subsequent vialed compounds were from the Drug Synthesis and Chemistry Branch, Developmental Therapeutics Program, Division of Cancer Treatment and Diagnosis at the National Cancer Institute. We used purified ERCC1-XPF (Supplementary Figure S1) and describe the purification procedure in Supplementary Information. The initial cuvette-based assay was optimized for DNA, MgCl2 concentrations as well as the incubation time to be used in the fluorescence assay in a 96 well plate format (Supplementary Figure S2). The assay consists of a 10 nM DNA (Q+Fl substrate annealed, described below) and 7.5 nM ERCC1-XPF protein in buffer containing 50 mM Tris-HCl pH8.0, 2 mM MgCl2, 0.1 mM BSA, and 0.5 mM β-mercaptoethanol. For preliminary screening, 150 μL of DNA was added to each well and the fluorescence signal was measured at 525 nm following excitation at 485 nm. Compounds or controls were then added to individual wells for a total of 80 compounds on each plate and the fluorescent signal was re-measured. We initially ran the screen using 50 μM compound and then repeated using 10 μM compound. 16 controls were used per plate, which consisted of buffer alone, DNA alone, ERCC1-XPF alone, 10 nM fluorescein ssDNA (positive signal), and 10 nM Q-Fl DNA with 7.5 nM ERCC1-XPF (positive signal). 7.5 nM ERCC1-XPF was added to each well containing the compounds and DNA and incubated for 30 minutes at 37°C after which the fluorescent signal was measured again.
The synthetic DNA substrate mimics a native forked ssDNA-dsDNA substrate of ERCC1-XPF (Figure 1A). This forked DNA substrate has a dsDNA region (14 bases) and a region containing two ssDNA flaps (12 bases each). One 26-mer DNA oligonucleotide contains a site-specific fluorescein modification at the indicated position (Fl Oligo: 5' - GCCAGCGCTCGGAT(AminoC6dT)(FLSN) TTTTTTTTTTT). The semi-complementary strand was synthesized containing a DABCYL quencher (Q) molecule at the depicted position (Q Oligo: 5' - TTTTTTTTTTT (AminoC6dT)(Dabcyl) ATCCGAGCGCTGGC; Figure 1A). The fluorescein (*) molecule has an excitation peak centered at 485 nm and an emission peak centered at 525 nm. The quencher (Q) molecule is able to quench the fluorescence signal of the fluorescein when it is in close proximity. The design of the semi-duplex DNA substrate is such that the fluorescein and DABCYL quencher are directly opposite one another at the double-stranded and single-stranded DNA junction (Figure 1A). […] Upon cleavage by ERCC1-XPF, (~4-5 bases from the dsDNA-ssDNA) the fluorescein label on the cleaved DNA is released into solution and results in a significant increase in fluorescence as the quencher is no longer in close proximity. The DNA substrate is also incorporated with a restriction enzyme site (HhaI) within the duplex DNA that results in a cleavage pattern similar to ERCC1-XPF. This serves as a positive control and allows assessment of ERCC1-XPF cleavage product. This DNA substrate is used in the solution based fluorescence screening assay to screen for inhibitors of ERCC1-XPF endonuclease activity. In the 96 well platform, the Z factor was calculated to be ~0.87 indicating a highly robust assay and highly suitable for a HTS. A Molecular Devices Spectramax M5 plate reader was used for fluorescence detection. The DNA substrate was the same for gel-based assays besides the fluorescent/quencher modifications and 5'-labeling using γ-ATP^32. For the secondary screen, the reaction was setup in a tube with 10 nM DNA, 7.5 nM XPF-ERCC1, 20 U/ml of HhaI, or 7.5 nM XPG (Supplementary Figure S3A) in nuclease reaction buffer with compound titration and incubated at 37°C for 30 minutes. The reaction was stopped by chelating the metal in the buffer and read in the Spectramax M5 plate reader.

[5] = test system: H460 cells; assay: Colony survival assay in H460 cells; assay type: cell-based; conditions: SAR, Supplementary Figure S6; cell line not stated
Protocol: We used H460, NSCLC cells, to first assess the impact on colony survival by knocking down ERCC1-XPF in these cells. […] Next, to assess if colony survival is affected we titrated cisplatin in these cells using a fixed concentration of Hit 1(50 μM) or Hit 2 (25 and 50 μM). […] Next, we assessed cisplatin potentiation by treating cells at a fixed cisplatin concentration (cisplatin IC50 in H460 cells) with Hit 1 or 2 titration (Figure 4C, filled symbols). H460 cells were treated with compound for a total of 4 hours while cisplatin was added to the media after 2 hours of compound pre-treatment. […] We also titrated Hit 1 or Hit 2 alone in these cells and treated for 4 h. […] We also assessed the effects of Hit 2 in another NSCLC cell line (H1299), which was either ERCC1 wildtype (WT) or knockout (KO) (Figure 4E).
Colony survival assay in a total reaction volume of 2.4 mL in a six-well plate Cells were split and seeded at a density of 300-400 format. Cells were transfected for 48 hours after which cells in a 60 mm plate and incubated overnight. The next complete media was added for 24 hours. Cells were day, the cells were treated with a fixed concentration of the seeded for clones and clones were selected using standard compound (Hit 1 or Hit 2) with cisplatin titration. After methods. ERCC1 KO clones were tested for ERCC1 treatment, fresh complete medium with antibiotics was and XPF expression by Western Blot using the ERCC1 added and the cells were then allowed to form colonies. In antibodies, 8F1, FL-297, and D-10 and the XPF antibody another method, the cells were seeded onto 60mm plates 3F2/3 (Santa Cruz).
Validation of genome editing was performed alone or titrated with a fixed concentration of cisplatin by PCR amplification with Taq polymerase (NEB) of (IC50 for the cell line used). Post treatment, the cells were exon 2 within the genomic DNA using the forward allowed to form colonies. Colonies were fixed with 95% primer: 5’ […]
methanol and stained with 0.2 % crystal violet. Colonies 3’ and the reverse primer: 5’ […]
with ≥50 cells were counted using a light microscope. Cell […] 3’. PCR product was cloned […]
survival was expressed as the ratio of average number of into a linearized pCR4-TOPO vector and transformed colonies in drug treated cells versus control cells x 100. into OneShot TOP10 E. coli using the TOPO-TA Cloning The experiment was done in triplicate for each drug Kit for Sequencing (Thermofisher). Bacterial colonies concentration. We have previously published the methods were selected with ampicillin and plasmid was extracted for ERCC1 and XPF knockdowns, which were used as using standard procedures. Plasmid was sequenced by controls. Briefly, cells were seeded onto six-well plates GeneWiz using an M13R primer. Potential sites of off-target editing in coding sequences were identified during
(density 2.5 × 10^5 cells /well) in antibiotic free media. guide RNA design with the Optimized CRISPR Design Two transfections were done at 24 h interval in each cell Tool. Primers were designed to amplify the exons line to knockdown ERCC1-XPF together according to containing the potential off-target sites and PCR product the manufacturer ’s (Dharmacon’s smartpools) protocol. was sequenced by GeneWiz. A list of specific off-target Addition of lipid reagent (Dharmafect 2, Dharmacon) sites and primers used to assess these off-target effects are […]

N.N.[Cl][Pt][Cl] [Cisplatin, cis-diammine-dichloroplatinum (II)] was tested, and the ICLs remaining [1] was 1-5%, the “tumor growth, single agent” value [2] was “initial tumor response that delayed tumor growth” and the intrastrand adducts remaining [3] was ~ 15%.

O=S(=O)(NCCO)c1cc[c]([Sb](=[O])([OH])[OH])cc1 [NSC13776] gave an IC50 [4] of 1150 ± 960 nM.

Molecule NC(=O)C[S+]([O-])CC(N)C(=O)O (stereo not shown) [NSC14161] has an IC50 [4] of 790 ± 350 nM.

Work on C[C@@H](O)CN(CCN(C[C@@H](C)O)C[C@@H](C)O)C[C@@H](C)O.O=[N+]([O-])O.[Cu] [NSC103019] yielded an IC50 [4] of 530 ± 128 nM.

In the case of Oc1cc(O)c2c(c1)O[C@H](c1ccc(O)c(O)c1)[C@@H](O)[C@@H]2c1c(O)cc(O)c2c1O[C@H](c1ccc(O)c(O)c1)[C@@H](O)C2 [Procyanidin B3], the “potentiation of cisplatin by structural analogues in cell culture / colony survival” value [5] is reported as “activity for only one of the structural analogues”.
